According to US8263044B2, “Stilbene like compounds as novel HDAC inhibitors” (Orchid Research Laboratories Limited, priority 2005, dated 2012):

Key:
HCT 116 cells = assay: cells; conditions: Homo sapiens, HCT-116, 48 h; for GI50: read-out: HCT116 GI50; for CC50: read-out: HCT116 LC50
Description: (§1) Experimental drugs are screened for anti-cancer activity in three cell lines for their GI50, TGI and LC50 values (using five concentrations for each compound). The cell lines are maintained in DMEM containing 10% fetal bovine serum. 96 well micro titer plates are inoculated with cells in 100 μL for 24 h at 37° C., 5% CO2, 95% air and 100% relative humidity. 5000 HCT 116 cells/well, 5000 NCIH 460 cells/well and 5000 U251 cells/well are plated. A separate plate with these cell lines is also inoculated to determine cell viability before the addition of the compounds (T0) (See Table I).
(§2) Following 24-hour incubation, experimental drugs are added to the 96 well plates. Each plate contains one of the above cell lines and the following in triplicate: five different concentrations (0.01, 0.1, 1, 10 and 100 μM) of four different compounds, appropriate dilutions of a cytotoxic standard and control (untreated) wells. Compounds are dissolved in DMSO to make 20 mM stock solutions on the day of drug addition and frozen at −20° C. Serial dilutions of these 20 mM stock solutions are made in complete growth medium such that 100 μL of these drug solutions in medium, of final concentrations equaling 0.01, 0.1, 1, 10 and 100 μM can be added to the cells in triplicate. […] (See Table I).
(§3) For T0 measurement, 24 hours after seeding the cells, 10 μL of 3-(4,5-Dimethyl-2-thiazolyl)-2,5-diphenyl-2H-tetrazolium (MTT) solution per well is added and incubation carried out for 3 hours at 37° C., 5% CO2, 95% air and 100% relative humidity, protected from light. Cells incubated with compounds for 48 hours are treated similarly except with the addition of 20 μL MTT solution per well and a subsequent incubation under the same conditions. After 3 hours of MTT incubation, well contents are aspirated carefully followed by addition of 150 μL DMSO per well. Plates are agitated to ensure solution of the formazan crystals in DMSO and absorbance read at 570 nm. (See Table I).
(§4) Percent growth is calculated for each compound's concentration relative to the control and zero measurement wells (T0; viability right before compound addition).
(§5) If a test well's O.D. value is lower than the T0 measurement for that cell line, then, % Growth=(test−zero)/zero×100

MDAMB231/U251 [1] = assay: cells; conditions: 48 h, read-out: MDAMB231/U251 GI50
Description: as §1, §2, §3, §4, §5

NCIH 460 cells = assay: cells; conditions: Homo sapiens, NCI-H460, 48 h; for GI50: read-out: NCIH460 GI50; for CC50: read-out: NCIH460 LC50
Description: as §1, §2, §3, §4, §5

[2] = test system: NCIH460, HCT116, MDAMB231/U251; assay: Anti-cancer screen, mean GI50 over the cell lines; assay type: cell-based; conditions: mean over the three cell lines; no unit in table
Description: as §1, §2, §3
Percent growth is calculated for each compound's concentration relative to the control and zero measurement wells (T0; viability right before compound addition). […]

[3] = test system: HDAC activity (Mouse Liver Extract); assay: Histone Deacetylase (HDAC) Inhibition Assay using Boc-Lys (Ac)-AMC Substrate; assay type: biochemical; conditions: mouse liver enzyme; for HDAC Inhibition 1 μM: inhibitor at 1 μM; for HDAC Inhibition 1 μM / HDAC Inhibition 10 μM: in % (unit assumed); for HDAC Inhibition 10 μM: inhibitor at 10 μM
Description: Histone Deacetylase (HDAC) Inhibition Assay using Boc-Lys (Ac)-AMC Substrate: Inhibition of HDAC has been implicated to modulate transcription and to induce apoptosis or differentiation in cancer cells. The fluorometric assay provides a fast and fluorescence based method that eliminates radioactivity, extractions or chromatography, as used in traditional assays. The assay based on two steps. First, the HDAC fluorometric substrate, which comprises an acetylated lysine side chain, is incubated with a sample containing HDAC activity (Mouse Liver Extract). Deacetylation of the substrate sensitizes the substrate, in the second step; treatment with the Trypsin stop solution produces a fluorophore that can be easily analyzed using fluorescence plate reader.
Assay was done in 96 well black microplate and total volume of the assay is 100 ul. Mouse liver enzyme is diluted 1:6 with HDAC buffer. Enzyme cocktail made of 10 ul of diluted enzyme and 30 ul of HDAC buffer. 40 ul of enzyme cocktail dispensed into each well. 10 ul of different concentrations of inhibitor added in to each well, except enzyme control well. Preincubated the plate at 30° C. for 5 minutes. The HDAC reaction is started by adding 50 ul of HDAC substrate (Boc-Lys (Ac)-AMC Substrate) solution. Incubated the plate at 30° C. for 30 minutes. Adding 100 ul of Trypsin stop solution stops the reaction. The plate is incubated again at 30° C. for 20-30 minutes. The release of AMC is monitored by measuring the fluorescence at excitation wavelength of 365 or 360 nm and emission wavelength of 440 or 460 nm. Buffer and substrate alone kept for blank subtraction. (Dennis Wegener et al, Anal. Biochem, 321, 2003, 202-208).

MDAMB231/U251 [4] = assay: cells; conditions: 48 h, read-out: MDAMB231/U251 LC50

Row | melting point | Structure (SMILES) | GI50 (HCT 116 cells) | CC50 (HCT 116 cells) | GI50 (MDAMB231/U251 [1]) | GI50 (NCIH 460 cells) | CC50 (NCIH 460 cells) | GI50 [2] | HDAC Inhibition 1 μM [3] | HDAC Inhibition 10 μM [3] | CC50 (MDAMB231/U251 [4]) | IC50 [3]
1 | 95.1 to 103.6 °C | O=C(CCCCCNC(=O)/C(=C\c1ccc(F)c(C(F)(F)F)c1)c1ccc(C(F)(F)F)cc1)NO [Example 22, (2Z)-3-(4-Fluoro-3-trifluoromethyl-phenyl)-2-(4-trifluoromethylphenyl)-N-[6-(hydroxyamino)-6-oxohexyl]acrylamide] |  |  |  |  |  |  |  |  |  | 
2 | 181 to 185.2 °C | O=C(CCCCCNC(=O)/C(=C\c1ccc(Cl)s1)c1ccc(F)cc1)NO [Example 44, (2Z)-3-(5-Chlorothiophen-2-yl)-2-(4-fluorophenyl)-N-[6-(hydroxyamino)-6-oxohexyl]acrylamide] |  |  |  |  |  |  |  |  |  | 
3 | 78.5 to 79 °C | Cc1ncsc1C=C(C(=O)NCCCCCC(=O)NO)c1ccc(Cl)cc1 (stereo in doubt) [Example 12, (2Z)-3-(4-Methyl-1,3-thiazol-5-yl)-2-(4-chlorophenyl)-N-[6-(hydroxyamino)-6-oxohexyl]acrylamide] |  |  |  |  |  |  |  |  |  | 
4 | 79.9 to 86.7 °C | COc1cc(/C=C(\C(=O)NCCCCCC(=O)NOCc2ccccc2)c2ccc(F)cc2)cc(OC)c1 [Example 33] |  |  |  |  |  |  |  |  |  | 
5 | 153 to 157 °C | COc1cc(/C=C(\C(=O)NCCCCCC(=O)NO)c2ccc(F)cc2)cc(OC)c1OC [Example 48, (2Z)-3-(3,4,5-Trimethoxyphenyl)-2-(4 fluorophenyl)-N-[6-(hydroxyamino)-6-oxohexyl]acrylamide] |  |  |  |  |  |  |  |  |  | 
6 | 100.3 to 103.9 °C | O=C(CCCCCNC(=O)/C(=C\c1ccc(F)c(Cl)c1)c1ccc(O)cc1)NO [Example 42, (2Z)-3-(3-Chloro-4-fluorophenyl)-2-(4-hydroxyphenyl)-N-[6-(hydroxyamino)-6-oxohexyl]acrylamide] |  |  |  |  |  |  |  |  |  | 
7 | 163.8 to 164.3 °C | O=C(CCCCCNC(=O)/C(=C\c1ccc(F)c(Cl)c1)c1ccc(F)cc1)NO [Example 10, (2Z)-3-(3-Chloro,4-fluorophenyl)-2-(4-fluorophenyl)-N-[6-(hydroxyamino)-6-oxohexyl]acrylamide] |  |  |  |  |  |  |  |  |  | 
8 | 135.8 to 139.4 °C | O=C(CCCCCNC(=O)/C(=C\c1ccc(F)c(F)c1)c1ccc(F)cc1)NO [Example 21] |  |  |  |  |  |  |  |  |  | 
9 | 142.1 to 145.4 °C | CSc1ccc(/C=C(\C(=O)NCCCCCC(=O)NC(Cc2ccc(O)cc2)C(=O)NO)c2ccc(F)cc2)cc1 (stereo not drawn) [Example 54] |  |  |  |  |  |  |  |  |  | 
10 | 144.1 to 144.6 °C | COc1cc(/C=C(\C(=O)NCCCCCC(=O)NO)c2ccc(O)cc2)cc(OC)c1 [Example 11, (2Z)-3-(3,5-dimethoxyphenyl)-2-(4-hydroxyphenyl)-N-[6-(hydroxyamino)-6-oxohexyl]acrylamide] |  |  |  |  |  |  |  |  |  | 

Further lines, the compound ahead of its results:

Row | Structure (SMILES) | melting point | GI50 (HCT 116 cells) | CC50 (HCT 116 cells) | GI50 (MDAMB231/U251 [1]) | GI50 (NCIH 460 cells) | CC50 (NCIH 460 cells) | GI50 [2] | HDAC Inhibition 1 μM [3] | HDAC Inhibition 10 μM [3] | CC50 (MDAMB231/U251 [4]) | IC50 [3]
11 | COc1c(F)c(F)c(/C(=C/c2ccc(F)cc2)C(=O)NCCCCCC(=O)NC(Cc2ccc(O)cc2)C(=O)NO)c(F)c1F (stereo not drawn) [Example 56] | 162.4 to 165.2 °C |  |  |  |  |  |  |  |  |  | 
12 | O=C(CCCCCNC(=O)/C(=C\c1ccncc1)c1ccc(F)cc1)NO [Example 14, (2Z)-3-(4-Pyridine)-2-(4-fluorophenyl)-N-[6-(hydroxyamino)-6-oxohexyl]acrylamide] |  | > 100 µM | > 100 µM | > 100 µM | > 100 µM | > 100 µM | > 100 µM | 21.1 | 35.4 | > 100 µM | 
13 | O=C(CCCCCNC(=O)/C(=C\c1ccncc1)c1ccc(F)cc1)Nc1ccc(O)cc1[N+](=O)[O-] [Example 15] |  | > 100 µM | > 100 µM | > 100 µM | > 100 µM | > 100 µM | > 100 µM | 1.7 | 4 | > 100 µM | 
14 | Cc1ncsc1/C=C(/C(=O)NCCCCCC(=O)NO)c1cccs1 [Example 8, [(2Z)-3-(4-Methyl-1,3-thiazol-5-yl)-2-(2-thienyl))-N-[6-(hydroxyamino)-6-oxohexyl]acrylamide] |  | 8 µM | > 100 µM | 6 µM | 15 µM | > 100 µM | 9.7 µM | 77.63 | 99.67 | 96 µM | 0.55 µM
15 | CSc1ccc(/C=C(\C(=O)NCCCCCC(=O)NO)c2cccs2)cc1 [Example 43, (2Z)-3-(4-Thiomethylphenyl)-2-(thiophene-2-yl)-N-[6-(hydroxyamino)-6-oxohexyl]acrylamide] |  | 5 µM | 70 µM | 0.05 µM | 10 µM | > 100 µM | 5.02 µM | 89.26 | 100 | 75 µM | 0.26 µM
16 | COc1cc(/C=C(\C(=O)NCCCCCC(=O)Nc2ccccc2O)c2ccc(F)cc2)cc(OC)c1 [Example 2] |  | 30 µM | 73 µM | 30 µM | 27 µM | 56 µM | 29 µM | 7.73 | 10.46 | > 100 µM | 
17 | COc1cc(/C=C(\C(=O)NCCCCCC(=O)Nc2ccccc2N)c2ccc(O)cc2)cc(OC)c1 [Example 4] |  | 9.4 µM | 80 µM | 55 µM | 45 µM | > 100 µM | 36 µM | 16.9 | 24 | > 100 µM | 
18 | Cc1ncsc1/C=C(\C(=O)NCCCCCC(=O)NO)c1ccc(C(F)(F)F)cc1 [Example 26, (2Z)-3-(4-Methylthiazol-5-yl)-2-(4-trifluoromethylphenyl)-N-[6-(hydroxyamino)-6-oxohexyl]acrylamide] |  | 9 µM | 100 µM | 10 µM | 34 µM | > 100 µM | 17.7 µM | 39.38 | 76.69 | 85 µM | 
19 | CC(=O)N(O)C(=O)CCCCCNC(=O)/C(=C\c1ccc(Cl)o1)c1ccc(F)cc1 [Example 53, N-Acetyl-6-{[(2Z)-3-(5-chloro-2-furyl)-2-(4-fluorophenyl)-acrylamide]}-N-hydroxyhexanamide] |  | 5 µM | 65 µM | 5 µM | 13 µM | 75 µM | 7.7 µM | 69.80 | 95.25 | 70 µM | 0.06 µM
20 | O=C(CCCCCNC(=O)/C(=C\c1ccc(Br)s1)c1ccc(Br)cc1)NO [Example 13, (2Z)-3-(5-Bromo-2-thienyl)-2-(4-bromophenyl)-N-[6-(hydroxyamino)-6-oxohexyl]acrylamide] |  | 5 µM | 70 µM | 3 µM | 7 µM | 75 µM | 5 µM | 53.83 | 89.18 | 80 µM | 2.95 µM
